The target of series [1] is Mitogen-activated protein kinase 14 (Homo sapiens) (UniProt Q16539). The experiment in a line: Binding affinity to wild-type human full length p38-alpha (M1 to S360 residues) expressed in bacterial expression system assessed as residual binding level at 10 uM by Kinomescan method relative to control.
Series [2] deals with Cyclin-dependent kinase 4/cyclin D1 (Homo sapiens) (UniProt P11802+P24385). The experiment in a line: Binding affinity to wild-type human full length CDK4/cyclinD1 (M1 to E303 residues) expressed in mammalian expression system assessed as residual binding level at 10 uM by Kinomescan method relative to control.
The target of series [3] is Tyrosine-protein kinase Fyn (Homo sapiens) (UniProt P06241). The experiment in a line: Binding affinity to wild-type human partial length FYN (T243 to L534 residues) expressed in bacterial expression system assessed as residual binding level at 10 uM by Kinomescan method relative to control.
In series [4] the target is Mitogen-activated protein kinase kinase kinase 11 (Homo sapiens) (UniProt Q16584). The series can be described thus: Binding affinity to wild-type human partial length MLK3 (I77 to W399 residues) expressed in bacterial expression system assessed as residual binding level at 10 uM by Kinomescan method relative to control.
Chain of Mitogen-activated protein kinase kinase kinase 11 (Homo sapiens) (Q16584 whole entry, looked up, the tested form may be a part): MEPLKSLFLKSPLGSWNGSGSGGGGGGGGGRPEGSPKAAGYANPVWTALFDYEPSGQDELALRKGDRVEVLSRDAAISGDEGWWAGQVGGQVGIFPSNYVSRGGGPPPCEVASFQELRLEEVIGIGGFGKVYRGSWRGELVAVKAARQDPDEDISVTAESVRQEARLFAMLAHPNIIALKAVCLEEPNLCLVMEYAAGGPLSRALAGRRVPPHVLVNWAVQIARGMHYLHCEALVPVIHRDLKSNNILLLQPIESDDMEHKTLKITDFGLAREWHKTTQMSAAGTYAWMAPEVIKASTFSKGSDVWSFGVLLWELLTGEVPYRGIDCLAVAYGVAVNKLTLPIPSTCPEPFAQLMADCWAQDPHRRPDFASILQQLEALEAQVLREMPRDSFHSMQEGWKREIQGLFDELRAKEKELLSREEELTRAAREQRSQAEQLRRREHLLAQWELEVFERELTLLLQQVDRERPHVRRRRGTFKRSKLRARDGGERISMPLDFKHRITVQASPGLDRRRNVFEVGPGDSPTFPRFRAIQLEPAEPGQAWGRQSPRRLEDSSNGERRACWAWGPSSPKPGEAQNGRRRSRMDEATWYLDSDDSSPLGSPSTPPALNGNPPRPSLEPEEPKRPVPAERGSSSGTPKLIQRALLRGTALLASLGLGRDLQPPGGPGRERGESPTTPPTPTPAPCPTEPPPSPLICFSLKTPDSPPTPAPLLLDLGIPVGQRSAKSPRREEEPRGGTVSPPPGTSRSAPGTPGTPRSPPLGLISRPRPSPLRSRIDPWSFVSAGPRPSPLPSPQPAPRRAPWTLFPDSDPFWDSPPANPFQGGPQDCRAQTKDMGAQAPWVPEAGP
Series [5] deals with Serine/threonine-protein kinase PAK 1 (Homo sapiens) (UniProt Q13153). The series can be described thus: Binding affinity to wild-type human partial length PAK1 (S149 to H545 residues) expressed in bacterial expression system assessed as residual binding level at 10 uM by Kinomescan method relative to control.
Series [6] relates to Phosphatidylinositol 4,5-bisphosphate 3-kinase catalytic subunit alpha isoform (Homo sapiens), P42336 [E542K]. The series can be described thus: Binding affinity to human partial length PIK3CA E542K mutant (R108 to N1068 residues) expressed in mammalian expression system assessed as residual binding level at 10 uM by Kinomescan method relative to control.
Chain of Phosphatidylinositol 4,5-bisphosphate 3-kinase catalytic subunit alpha isoform (Homo sapiens), P42336 [E542K] (P42336 whole entry E542K, the tested form may be a part, canonical isoform): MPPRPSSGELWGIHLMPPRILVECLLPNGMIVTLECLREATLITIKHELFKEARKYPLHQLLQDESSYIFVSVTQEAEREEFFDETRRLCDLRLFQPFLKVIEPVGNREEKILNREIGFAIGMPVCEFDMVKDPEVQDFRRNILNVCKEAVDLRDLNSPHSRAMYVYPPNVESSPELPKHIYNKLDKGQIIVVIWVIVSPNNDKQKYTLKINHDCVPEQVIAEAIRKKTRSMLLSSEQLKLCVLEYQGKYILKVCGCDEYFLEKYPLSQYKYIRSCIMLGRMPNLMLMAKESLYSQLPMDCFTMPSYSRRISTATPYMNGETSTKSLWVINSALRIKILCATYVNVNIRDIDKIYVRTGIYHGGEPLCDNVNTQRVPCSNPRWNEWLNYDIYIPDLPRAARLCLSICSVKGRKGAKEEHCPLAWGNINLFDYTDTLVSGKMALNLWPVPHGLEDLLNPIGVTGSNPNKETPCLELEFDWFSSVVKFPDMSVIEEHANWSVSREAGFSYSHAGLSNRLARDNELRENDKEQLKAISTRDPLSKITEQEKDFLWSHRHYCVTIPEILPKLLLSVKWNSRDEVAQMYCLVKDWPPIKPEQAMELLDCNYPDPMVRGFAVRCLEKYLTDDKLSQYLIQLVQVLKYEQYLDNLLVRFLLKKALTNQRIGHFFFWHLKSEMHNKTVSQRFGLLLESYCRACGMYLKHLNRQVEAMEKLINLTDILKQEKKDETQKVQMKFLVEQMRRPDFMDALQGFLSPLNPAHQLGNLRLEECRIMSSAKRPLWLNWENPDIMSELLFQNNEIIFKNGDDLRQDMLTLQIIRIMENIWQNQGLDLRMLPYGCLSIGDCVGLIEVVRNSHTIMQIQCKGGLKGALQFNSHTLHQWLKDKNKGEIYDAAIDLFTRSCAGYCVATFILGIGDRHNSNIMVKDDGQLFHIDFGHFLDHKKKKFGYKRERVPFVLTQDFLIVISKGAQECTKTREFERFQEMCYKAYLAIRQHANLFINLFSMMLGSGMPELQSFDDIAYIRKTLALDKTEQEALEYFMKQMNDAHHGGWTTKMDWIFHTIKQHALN
The subject of series [7] is Receptor-type tyrosine-protein kinase FLT3 (Homo sapiens), P36888 [N841I]. The experiment in a line: Binding affinity to human partial length FLT3 N841I mutant (V592 to Y969 residues) expressed in bacterial expression system assessed as residual binding level at 10 uM by Kinomescan method relative to control.
For series [8], the target named is Calcium/calmodulin-dependent protein kinase type 1 (Homo sapiens) (UniProt Q14012). The experiment in a line: Binding affinity to wild-type human full length CAMK1 (M1 to L370 residues) expressed in bacterial expression system assessed as residual binding level at 10 uM by Kinomescan method relative to control.
Chain of Calcium/calmodulin-dependent protein kinase type 1 (Homo sapiens) (Q14012 whole entry, looked up, the tested form may be a part): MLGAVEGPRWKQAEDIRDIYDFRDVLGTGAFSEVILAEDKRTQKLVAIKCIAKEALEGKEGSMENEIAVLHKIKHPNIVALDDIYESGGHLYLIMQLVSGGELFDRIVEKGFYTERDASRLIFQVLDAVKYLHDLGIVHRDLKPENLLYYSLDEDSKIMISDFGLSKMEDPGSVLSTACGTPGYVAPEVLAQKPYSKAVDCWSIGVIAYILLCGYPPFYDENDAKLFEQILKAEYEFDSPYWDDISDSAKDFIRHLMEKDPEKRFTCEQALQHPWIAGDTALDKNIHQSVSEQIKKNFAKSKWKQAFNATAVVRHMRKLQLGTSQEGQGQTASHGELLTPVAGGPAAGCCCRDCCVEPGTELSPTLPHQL
In series [9] the target is MAP kinase-activated protein kinase 5 (Homo sapiens) (UniProt Q8IW41). The experiment in a line: Binding affinity to wild-type human partial length MAPKAPK5 (M1 to D322 residues) expressed in mammalian expression system assessed as residual binding level at 10 uM by Kinomescan method relative to control.
In series [10] the target is Mast/stem cell growth factor receptor Kit (Homo sapiens) (UniProt P10721). The series can be described thus: Binding affinity to wild-type human partial length autoinhibited KIT (Y545 to D952 residues) expressed in mammalian expression system assessed as residual binding level at 10 uM by Kinomescan method relative to control.
In series [11] the target is Cyclin-G-associated kinase (Homo sapiens) (UniProt O14976). The experiment in a line: Binding affinity to wild-type human partial length GAK (G13 to Y338 residues) expressed in bacterial expression system assessed as residual binding level at 10 uM by Kinomescan method relative to control.
Chain of Cyclin-G-associated kinase (Homo sapiens) (O14976 whole entry, the tested form may be a part): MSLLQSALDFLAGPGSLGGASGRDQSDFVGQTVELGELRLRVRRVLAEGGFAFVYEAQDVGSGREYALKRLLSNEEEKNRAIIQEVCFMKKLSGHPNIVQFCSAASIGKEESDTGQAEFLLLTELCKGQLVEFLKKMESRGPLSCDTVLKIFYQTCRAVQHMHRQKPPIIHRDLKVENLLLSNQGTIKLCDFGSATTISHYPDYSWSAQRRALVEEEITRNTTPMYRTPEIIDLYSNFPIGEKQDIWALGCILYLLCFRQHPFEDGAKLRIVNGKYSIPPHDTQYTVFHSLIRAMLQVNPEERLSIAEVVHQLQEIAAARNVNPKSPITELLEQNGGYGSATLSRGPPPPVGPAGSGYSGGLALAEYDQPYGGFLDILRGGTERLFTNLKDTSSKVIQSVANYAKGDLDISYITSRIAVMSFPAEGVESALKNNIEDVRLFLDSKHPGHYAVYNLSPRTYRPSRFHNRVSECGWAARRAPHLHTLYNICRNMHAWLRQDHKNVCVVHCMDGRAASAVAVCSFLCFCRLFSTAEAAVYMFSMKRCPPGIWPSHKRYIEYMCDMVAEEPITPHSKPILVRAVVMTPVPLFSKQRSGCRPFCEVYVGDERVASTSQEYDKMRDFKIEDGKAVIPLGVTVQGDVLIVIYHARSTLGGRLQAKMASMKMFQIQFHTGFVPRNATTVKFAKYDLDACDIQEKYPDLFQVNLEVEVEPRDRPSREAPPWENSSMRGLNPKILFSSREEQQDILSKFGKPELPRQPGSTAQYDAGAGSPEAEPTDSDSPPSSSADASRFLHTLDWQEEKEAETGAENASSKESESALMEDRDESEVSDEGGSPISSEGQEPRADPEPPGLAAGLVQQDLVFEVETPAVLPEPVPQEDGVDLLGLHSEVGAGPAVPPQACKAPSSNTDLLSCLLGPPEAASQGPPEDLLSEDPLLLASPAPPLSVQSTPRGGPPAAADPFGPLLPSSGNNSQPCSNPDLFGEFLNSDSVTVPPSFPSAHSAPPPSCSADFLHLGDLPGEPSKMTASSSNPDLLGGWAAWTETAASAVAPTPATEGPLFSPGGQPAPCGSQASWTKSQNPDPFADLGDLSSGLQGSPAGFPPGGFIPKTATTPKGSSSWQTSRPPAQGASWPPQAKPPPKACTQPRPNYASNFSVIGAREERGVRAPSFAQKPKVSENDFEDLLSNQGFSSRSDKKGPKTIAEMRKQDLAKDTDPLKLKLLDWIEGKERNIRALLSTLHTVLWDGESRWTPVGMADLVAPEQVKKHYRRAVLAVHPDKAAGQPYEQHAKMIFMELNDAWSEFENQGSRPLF
Series [12] in a line: Stability of compound in D2O at 0.012 mmol followed by H2O2 addition measured after 2 hrs by 1H-NMR spectroscopy. The format is physicochemical.
In series [13] the target is Mitogen-activated protein kinase kinase kinase 2 (Homo sapiens) (UniProt Q9Y2U5). The experiment in a line: Binding affinity to wild-type human partial length MAP3K2 (S315 to H619 residues) expressed in mammalian expression system assessed as residual binding level at 10 uM by Kinomescan method relative to control.
Series [14] has as its system Epidermal growth factor receptor (Homo sapiens), P00533 [G719C]. The experiment in a line: Binding affinity to human partial length EGFR G719C mutant (R669 to V1011 residues) expressed in bacterial expression system assessed as residual binding level at 10 uM by Kinomescan method relative to control.
In series [15] the target is Testis-specific serine/threonine-protein kinase 1 (Homo sapiens) (UniProt Q9BXA7). The experiment in a line: Binding affinity to wild-type human full length TSSK1B (M1 to Q367 residues) expressed in bacterial expression system assessed as residual binding level at 10 uM by Kinomescan method relative to control.
Chain of Testis-specific serine/threonine-protein kinase 1 (Homo sapiens) (Q9BXA7 whole entry, the tested form may be a part): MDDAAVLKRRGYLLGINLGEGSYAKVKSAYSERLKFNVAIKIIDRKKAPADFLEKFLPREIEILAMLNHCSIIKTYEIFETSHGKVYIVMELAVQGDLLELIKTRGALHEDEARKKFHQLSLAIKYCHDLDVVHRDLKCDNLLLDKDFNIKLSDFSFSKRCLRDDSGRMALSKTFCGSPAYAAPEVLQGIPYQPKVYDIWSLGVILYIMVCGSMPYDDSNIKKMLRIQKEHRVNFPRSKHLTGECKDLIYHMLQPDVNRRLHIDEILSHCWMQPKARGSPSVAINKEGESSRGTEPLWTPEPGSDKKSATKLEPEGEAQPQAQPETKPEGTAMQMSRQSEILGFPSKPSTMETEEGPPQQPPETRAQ
Series [16] deals with Ribosomal protein S6 kinase alpha-6 (Homo sapiens) (UniProt Q9UK32). The series can be described thus: Binding affinity to wild-type human partial length C-terminal RSK4 kinase domain 2 (I401 to Y711 residues) expressed in bacterial expression system assessed as residual binding level at 10 uM by Kinomescan method relative to control.
Series [17] addresses Death-associated protein kinase 3 (Homo sapiens) (UniProt O43293). The series can be described thus: Binding affinity to wild-type human partial length DAPK3 (M1 to A277 residues) expressed in bacterial expression system assessed as residual binding level at 10 uM by Kinomescan method relative to control.
The subject of series [18] is Receptor-type tyrosine-protein kinase FLT3 (Homo sapiens), P36888 [D835Y]. The experiment in a line: Binding affinity to human partial length FLT3 D835Y mutant (Q580 to Y969 residues) expressed in bacterial expression system assessed as residual binding level at 10 uM by Kinomescan method relative to control.
Series [19] addresses Calcium/calmodulin-dependent protein kinase type 1G (Homo sapiens) (UniProt Q96NX5). The experiment in a line: Binding affinity to wild-type human partial length CAMK1G (M1 to A342 residues) expressed in bacterial expression system assessed as residual binding level at 10 uM by Kinomescan method relative to control.
Series [20] deals with Serine/threonine-protein kinase 36 (Homo sapiens) (UniProt Q9NRP7). The experiment in a line: Binding affinity to wild-type human partial length STK36 (M1 to T271 residues) expressed in bacterial expression system assessed as residual binding level at 10 uM by Kinomescan method relative to control.
Series [21] addresses Serine/threonine-protein kinase PLK4 (Homo sapiens) (UniProt O00444). The experiment in a line: Binding affinity to wild-type human partial length PLK4 (M1 to S273 residues) expressed in mammalian expression system assessed as residual binding level at 10 uM by Kinomescan method relative to control.
Series [22] concerns the target Serine/threonine-protein kinase Nek6 (Homo sapiens) (UniProt Q9HC98). The experiment in a line: Binding affinity to wild-type human full length NEK6 (M8 to T313 residues) expressed in bacterial expression system assessed as residual binding level at 10 uM by Kinomescan method relative to control.
Series [23] concerns the target Cyclin-dependent kinase-like 3 (Homo sapiens) (UniProt Q8IVW4). The experiment in a line: Binding affinity to wild-type human partial length CDKL3 (M1 to D327 residues) expressed in bacterial expression system assessed as residual binding level at 10 uM by Kinomescan method relative to control.
For series [24], the target named is Serine/threonine-protein kinase DCLK2 (Homo sapiens) (UniProt Q8N568). The experiment in a line: Binding affinity to wild-type human partial length DCAMKL2 (K273 to V664 residues) expressed in bacterial expression system assessed as residual binding level at 10 uM by Kinomescan method relative to control.

Chain of Serine/threonine-protein kinase Nek6 (Homo sapiens) (Q9HC98 whole entry, the tested form may be a part): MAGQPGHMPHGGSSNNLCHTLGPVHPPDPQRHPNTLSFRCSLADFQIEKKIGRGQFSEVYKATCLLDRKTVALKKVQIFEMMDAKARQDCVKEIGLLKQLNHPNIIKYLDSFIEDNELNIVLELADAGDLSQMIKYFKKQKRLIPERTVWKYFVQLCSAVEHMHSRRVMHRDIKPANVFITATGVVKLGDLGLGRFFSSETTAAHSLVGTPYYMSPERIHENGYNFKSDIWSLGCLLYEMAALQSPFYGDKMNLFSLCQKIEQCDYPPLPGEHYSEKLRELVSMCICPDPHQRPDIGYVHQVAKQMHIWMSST
Chain of Cyclin-dependent kinase-like 3 (Homo sapiens) (Q8IVW4 whole entry, looked up, the tested form may be a part): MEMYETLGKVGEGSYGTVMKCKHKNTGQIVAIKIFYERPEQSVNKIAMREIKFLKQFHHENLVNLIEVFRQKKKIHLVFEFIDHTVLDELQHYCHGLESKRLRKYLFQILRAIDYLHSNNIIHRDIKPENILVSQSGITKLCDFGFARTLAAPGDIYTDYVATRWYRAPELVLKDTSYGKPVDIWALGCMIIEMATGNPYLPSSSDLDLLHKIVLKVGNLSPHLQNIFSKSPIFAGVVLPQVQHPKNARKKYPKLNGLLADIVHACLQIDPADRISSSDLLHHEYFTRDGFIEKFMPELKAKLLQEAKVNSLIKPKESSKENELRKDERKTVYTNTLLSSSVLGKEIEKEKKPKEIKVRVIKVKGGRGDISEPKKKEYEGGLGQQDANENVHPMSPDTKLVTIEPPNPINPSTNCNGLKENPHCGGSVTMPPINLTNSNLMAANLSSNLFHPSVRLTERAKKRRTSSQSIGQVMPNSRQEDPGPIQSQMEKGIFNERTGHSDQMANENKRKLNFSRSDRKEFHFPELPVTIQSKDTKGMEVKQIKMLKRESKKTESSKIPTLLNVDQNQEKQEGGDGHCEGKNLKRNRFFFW

With `CC(C)N1C(=O)C(NCCCN(C)C)=C(c2cn(C)c3ccccc23)C1=O.Cl`, the Activity in series [1] came out at 100%; in [2] it was 88%; in [3] it was 100%; in [4], 91%; in series [5], 92%; in series [6], 87%. In addition, the Activity in [7] was 100%; in series [8] it was 100%; in series [9] it was 71%; in [10], 66%; in series [11], 94%; in series [13], 83%. The Activity in [14] came out at 100%; in series [15], 100%; in series [16], 100%; in series [17], 98%; in [18], 94%; in series [19], 95%. Also, the Activity was determined as 98% in series [20]; 97% in series [21]; 100% in [22]; 100% in [23]; 94% in series [24]. Besides, the Stability result in [12] is reported as “Stable”.

For the origin of these results see ChEMBL document CHEMBL4304811, “Development of a Water-Soluble Indolylmaleimide Derivative IM-93 Showing Dual Inhibition of Ferroptosis and NETosis” (ACS Med Chem Lett, 2019).
